Where “and” joins values, the source holds several entries; their conditions need not be identical. Equal values may be shown once.
Conditions: Crystal; for mass density: 298.15 K, 101.33 kPa, measurement of volume and mass of pellet; for vapor or sublimation pressure: Calculated from knudsen effusion weight loss

c1ccc(-c2cccc(-c3ccccc3)c2)cc1 [m-terphenyl]
Conditions	mass density [kg/m3]	vapor or sublimation pressure
–	1140	–
337.28 K	–	6.28e-05 kPa and 6.44e-05 kPa and 6.48e-05 kPa
339.22 K	–	8.09e-05 kPa and 8.13e-05 kPa and 7.88e-05 kPa
341.11 K	–	0.000101 kPa and 9.73e-05 kPa
343.27 K	–	0.000133 kPa and 0.00013 kPa and 0.000134 kPa
345.21 K	–	0.000164 kPa and 0.000163 kPa and 0.000162 kPa
347.1 K	–	0.000197 kPa and 0.000204 kPa
349.27 K	–	0.000263 kPa and 0.000257 kPa and 0.000264 kPa
351.2 K	–	0.000324 kPa and 0.000328 kPa
353.11 K	–	0.000403 kPa and 0.000399 kPa
355.28 K	–	0.000518 kPa and 0.000524 kPa and 0.000532 kPa
357.19 K	–	0.000655 kPa and 0.00065 kPa and 0.000648 kPa
359.1 K	–	0.000797 kPa and 0.00081 kPa and 0.000807 kPa

c1ccc(-c2ccccc2-c2ccccc2)cc1 [o-terphenyl]
Conditions	mass density [kg/m3]	vapor or sublimation pressure
–	1120	–
312.3 K	–	6.04e-05 kPa and 6.13e-05 kPa and 5.87e-05 kPa
313.79 K	–	7.08e-05 kPa and 7.16e-05 kPa
315.13 K	–	8.28e-05 kPa
315.14 K	–	8.47e-05 kPa and 8.48e-05 kPa
315.78 K	–	7.29e-05 kPa
316.78 K	–	0.000103 kPa and 0.000102 kPa and 0.000104 kPa
318.28 K	–	0.000125 kPa and 0.000123 kPa and 0.000124 kPa
319.64 K	–	0.000143 kPa and 0.000145 kPa and 0.000148 kPa
321.28 K	–	0.000181 kPa and 0.000179 kPa and 0.000174 kPa
322.78 K	–	0.000217 kPa and 0.000212 kPa
324.14 K	–	0.000247 kPa and 0.000249 kPa
325.78 K	–	0.000305 kPa and 0.000308 kPa and 0.0003 kPa
327.28 K	–	0.000368 kPa and 0.00036 kPa and 0.000361 kPa
328.63 K	–	0.000419 kPa and 0.000422 kPa and 0.000423 kPa

c1ccc(-c2ccc(-c3ccccc3)cc2)cc1 [p-terphenyl]
Conditions	mass density [kg/m3]	vapor or sublimation pressure
–	1200	–
373.27 K	–	0.000127 kPa and 0.000126 kPa and 0.000125 kPa
375.22 K	–	0.000154 kPa and 0.000153 kPa
377.14 K	–	0.000185 kPa and 0.000189 kPa and 0.000182 kPa
379.28 K	–	0.000232 kPa and 0.000233 kPa and 0.000234 kPa
381.21 K	–	0.00028 kPa and 0.000283 kPa and 0.000281 kPa
383.28 K	–	0.000344 kPa and 0.000347 kPa and 0.000348 kPa
385.17 K	–	0.000421 kPa and 0.000417 kPa
387.12 K	–	0.000516 kPa and 0.000498 kPa
389.27 K	–	0.000628 kPa and 0.000626 kPa and 0.000631 kPa
391.16 K	–	0.000748 kPa and 0.000758 kPa and 0.000757 kPa
393.22 K	–	0.000928 kPa and 0.000931 kPa and 0.000922 kPa
395.27 K	–	0.001137 kPa and 0.001131 kPa and 0.001138 kPa

From the NIST ThermoML archive (doi:10.1016/j.jct.2007.08.008)
